In patent US11897867B2, “6-phenyl-4,5-dihydropyridazin-3(2H)-one derivatives as PDE3A and PDE3B inhibitors for treating cancer” (Bayer Aktiengesellschaft, priority 2017, dated 2024):

Assays:
human full length PDE3A = target: T1, human full length PDE3A (Homo sapiens, UniProt Q14432); assay: PDE3A enzyme inhibition (3H-cAMP Scintillation Proximity Assay); type: biochemical; conditions: PDE3A cell extract from Sf9 cells, 60 min room temperature; read-out: Target IC50 PDE3A IC50
T1 construct: Sf9 cells overexpressing human full length PDE3A; purchased SB Drug Discovery, UK; host or cells: Sf9 cells (cell extract)
Procedure, shortened: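 Sf9 cell extract overexpressing human full-length PDE3A, diluted for linear kinetics (<70% substrate used), in 50 mM Tris/HCl pH 7.5, 8.3 mM MgCl2, 1.7 mM EDTA, 0.2% BSA. [8-3H]cAMP substrate, 60 min at room temperature, yttrium SPA bead read-out; IC50 from sigmoidal curves of % activity.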

[1] = system: HeLa cells (cervical cancer); assay: Cell proliferation measurement (Cell Titer Glo), HeLa; type: cell-based; conditions: Homo sapiens, 72 h treatment, read-out: Anti-proliferation IC50 HeLa (Cervical cancer)
Procedure, shortened: (§1)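 Cells (1000/well; 500 for HeLa) plated overnight at 37 °C, then exposed to a ≥10-point compound dilution series for 72 h at 37 °C, DMSO 0.3% final as vehicle. Viability read by CellTiter-Glo luminescence; IC50 from 4-parameter fit against untreated wells.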

human full length PDE3B = target: T2, human full length PDE3B (Homo sapiens, UniProt Q13370); assay: PDE3B enzyme inhibition (3H-cAMP Scintillation Proximity Assay); type: biochemical; conditions: PDE3B cell extract from Sf9 cells, 60 min room temperature; read-out: Target IC50 PDE3B IC50
T2 construct: Sf9 cells overexpressing human full length PDE3B; purchased SB Drug Discovery, UK; host or cells: Sf9 cells (cell extract)
Procedure, shortened: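 SPA with Sf9 cell extract overexpressing human full-length PDE3B, diluted for linear kinetics and <70% substrate turnover, in 50 mM Tris/HCl pH 7.5, 8.3 mM MgCl2, 1.7 mM EDTA, 0.2% BSA. [8-3H]cAMP substrate, 60 min at room temperature, stopped with yttrium SPA beads. IC50 from sigmoidal fit of % activity vs log concentration.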

SK-MEL-3 (melanoma) = assay: Cell proliferation measurement (Cell Titer Glo), SK-MEL-3; type: cell-based; conditions: Homo sapiens, SK-MEL3, SK-MEL-3 cells, 72 h treatment, read-out: Anti-proliferation IC50 SK-MEL-3 (melanoma)
Procedure, shortened: as §1

T2 sequence (Q13370 whole entry): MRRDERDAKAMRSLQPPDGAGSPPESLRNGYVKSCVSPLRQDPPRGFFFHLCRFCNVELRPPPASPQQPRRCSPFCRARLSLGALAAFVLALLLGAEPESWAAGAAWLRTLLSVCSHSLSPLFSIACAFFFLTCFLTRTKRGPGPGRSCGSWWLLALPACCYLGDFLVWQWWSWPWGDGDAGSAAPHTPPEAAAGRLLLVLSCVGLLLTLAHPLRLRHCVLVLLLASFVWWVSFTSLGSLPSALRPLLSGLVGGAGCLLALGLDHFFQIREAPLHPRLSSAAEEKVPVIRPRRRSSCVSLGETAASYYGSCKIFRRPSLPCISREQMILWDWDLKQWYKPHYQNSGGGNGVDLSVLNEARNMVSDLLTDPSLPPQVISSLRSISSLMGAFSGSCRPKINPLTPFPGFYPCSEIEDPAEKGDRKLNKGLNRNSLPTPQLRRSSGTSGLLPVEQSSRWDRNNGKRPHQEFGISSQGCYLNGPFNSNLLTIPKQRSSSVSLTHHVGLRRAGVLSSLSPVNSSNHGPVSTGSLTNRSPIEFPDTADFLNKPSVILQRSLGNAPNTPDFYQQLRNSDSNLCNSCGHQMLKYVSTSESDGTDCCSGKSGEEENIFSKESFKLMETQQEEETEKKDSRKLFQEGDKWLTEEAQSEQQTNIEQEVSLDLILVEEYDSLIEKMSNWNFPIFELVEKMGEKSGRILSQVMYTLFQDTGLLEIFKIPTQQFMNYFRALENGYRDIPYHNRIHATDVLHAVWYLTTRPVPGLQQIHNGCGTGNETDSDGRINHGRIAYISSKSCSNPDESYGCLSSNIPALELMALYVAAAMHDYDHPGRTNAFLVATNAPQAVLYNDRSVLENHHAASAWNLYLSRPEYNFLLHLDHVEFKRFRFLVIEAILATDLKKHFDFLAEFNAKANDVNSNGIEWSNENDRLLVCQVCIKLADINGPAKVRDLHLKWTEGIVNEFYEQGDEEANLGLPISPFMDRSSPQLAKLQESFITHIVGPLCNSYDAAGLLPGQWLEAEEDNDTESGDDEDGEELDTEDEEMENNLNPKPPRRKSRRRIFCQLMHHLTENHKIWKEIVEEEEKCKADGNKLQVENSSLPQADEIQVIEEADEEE
T1 sequence (Q14432 whole entry): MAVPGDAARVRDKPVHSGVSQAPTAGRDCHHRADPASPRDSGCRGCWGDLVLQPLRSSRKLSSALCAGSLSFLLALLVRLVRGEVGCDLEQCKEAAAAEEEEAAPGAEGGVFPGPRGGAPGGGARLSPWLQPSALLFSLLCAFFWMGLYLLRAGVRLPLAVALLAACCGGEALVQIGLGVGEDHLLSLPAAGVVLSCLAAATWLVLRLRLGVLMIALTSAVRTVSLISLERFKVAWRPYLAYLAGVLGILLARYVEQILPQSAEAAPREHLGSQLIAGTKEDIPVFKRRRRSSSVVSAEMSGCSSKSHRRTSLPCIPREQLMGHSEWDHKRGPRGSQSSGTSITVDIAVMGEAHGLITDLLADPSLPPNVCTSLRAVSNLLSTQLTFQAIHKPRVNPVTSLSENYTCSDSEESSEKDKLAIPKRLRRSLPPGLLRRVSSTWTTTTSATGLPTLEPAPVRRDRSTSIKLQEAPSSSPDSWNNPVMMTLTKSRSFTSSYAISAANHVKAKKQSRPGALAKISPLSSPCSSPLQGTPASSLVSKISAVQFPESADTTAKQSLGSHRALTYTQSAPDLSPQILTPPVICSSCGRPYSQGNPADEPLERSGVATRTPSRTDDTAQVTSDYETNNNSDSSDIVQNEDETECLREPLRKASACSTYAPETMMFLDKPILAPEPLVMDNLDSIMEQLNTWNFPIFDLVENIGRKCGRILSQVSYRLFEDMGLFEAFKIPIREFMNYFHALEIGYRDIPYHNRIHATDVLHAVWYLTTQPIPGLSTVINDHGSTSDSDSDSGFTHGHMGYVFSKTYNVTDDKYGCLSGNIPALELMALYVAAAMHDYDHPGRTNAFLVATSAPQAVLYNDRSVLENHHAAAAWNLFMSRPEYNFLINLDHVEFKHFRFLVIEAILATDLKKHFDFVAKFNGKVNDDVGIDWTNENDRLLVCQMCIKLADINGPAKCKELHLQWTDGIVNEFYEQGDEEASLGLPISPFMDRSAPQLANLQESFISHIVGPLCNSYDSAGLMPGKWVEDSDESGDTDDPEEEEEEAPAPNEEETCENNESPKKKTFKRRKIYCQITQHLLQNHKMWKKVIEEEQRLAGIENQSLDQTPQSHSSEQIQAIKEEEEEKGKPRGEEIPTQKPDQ

O=C1CCC(c2ccc(-c3cc(F)c(F)cc3F)c(F)c2)=NN1 [Example 38, 6-(2,2′,4′,5′-tetrafluoro[1,1′-biphenyl]-4-yl)-4,5-dihydropyridazin-3(2H)-one]
IC50 (human full length PDE3A): 100 nM
IC50 [1]: 5.59 nM
IC50 (human full length PDE3B): 100 nM
IC50 (SK-MEL-3 (melanoma)): 11.1 nM

Cc1cc(C2=NNC(=O)CC2)ccc1-c1ccc(Cl)c(N)c1 [Example 108, 6-(3′-amino-4′-chloro-2-methyl[1,1′-biphenyl]-4-yl)-4,5-dihydropyridazin-3(2H)-one]
IC50 (human full length PDE3A): 160 nM
IC50 [1]: 6.54 nM
IC50 (human full length PDE3B): 210 nM
IC50 (SK-MEL-3 (melanoma)): 17.8 nM

N#Cc1cc(C2=NNC(=O)CC2)ccc1N1CCOCC1 [Example 15, 2-(Morpholin-4-yl)-5-(6-oxo-1,4,5,6-tetrahydropyridazin-3-yl)benzonitrile]
IC50 (human full length PDE3A): 110 nM
IC50 [1]: 44.8 nM
IC50 (human full length PDE3B): 77 nM
IC50 (SK-MEL-3 (melanoma)): 69.5 nM

O=C1CCC(c2ccc(-c3ccc4cc[nH]c4c3)c(F)c2)=NN1 [Example 74, 6-[3-fluoro-4-(1H-indol-6-yl)phenyl]-4,5-dihydropyridazin-3(2H)-one]
IC50 (human full length PDE3A): 110 nM
IC50 [1]: 13.3 nM
IC50 (human full length PDE3B): 180 nM
IC50 (SK-MEL-3 (melanoma)): 21 nM

Cc1cc(C2=NNC(=O)CC2)ccc1-c1ccncc1 [Example 5, 6-[3-Methyl-4-(pyridin-4-yl)phenyl]-4,5-dihydropyridazin-3(2H)-one]
IC50 (human full length PDE3A): 120 nM
IC50 [1]: 21.3 nM
IC50 (human full length PDE3B): 39 nM
IC50 (SK-MEL-3 (melanoma)): 65.7 nM

Cc1ccc(F)cc1-c1ccc(C2=NNC(=O)CC2)cc1F [Example 57, 6-(2,5′-difluoro-2′-methyl[1,1′-biphenyl]-4-yl)-4,5-dihydropyridazin-3(2H)-one]
IC50 (human full length PDE3A): 180 nM
IC50 [1]: 5.34 nM
IC50 (human full length PDE3B): 60 nM
IC50 (SK-MEL-3 (melanoma)): 11.8 nM

Cc1cc(C2=NNC(=O)CC2)ccc1-c1cccc(F)c1F [Example 104, 6-(2′,3′-difluoro-2-methyl[1,1′-biphenyl]-4-yl)-4,5-dihydropyridazin-3(2H)-one]
IC50 (human full length PDE3A): 120 nM
IC50 [1]: 13.4 nM
IC50 (human full length PDE3B): 120 nM
IC50 (SK-MEL-3 (melanoma)): 70.8 nM

O=C1CCC(c2ccc(-c3ccc(F)cc3)c(F)c2)=NN1 [Example 8, 6-(2,4′-Difluorobiphenyl-4-yl)-4,5-dihydropyridazin-3(2H)-one]
IC50 (human full length PDE3A): 90 nM
IC50 [1]: 1.27 nM
IC50 (human full length PDE3B): 49 nM
IC50 (SK-MEL-3 (melanoma)): 5.01 nM

Cc1cc(C2=NNC(=O)CC2)ccc1-c1ccc(Cl)cc1 [Example 122, 6-(4′-chloro-2-methyl[1,1′-biphenyl]-4-yl)-4,5-dihydropyridazin-3(2H)-one]
IC50 (human full length PDE3A): 280 nM
IC50 [1]: 2.67 nM
IC50 (human full length PDE3B): 200 nM
IC50 (SK-MEL-3 (melanoma)): 9.92 nM

O=C1CCC(c2ccc(-c3ccc(F)cc3F)c(F)c2)=NN1 [Example 55, 6-(2,2′,4′-trifluoro[1,1′-biphenyl]-4-yl)-4,5-dihydropyridazin-3(2H)-one]
IC50 (human full length PDE3A): 50 nM
IC50 [1]: 1.96 nM
IC50 (human full length PDE3B): 62 nM
IC50 (SK-MEL-3 (melanoma)): 3.39 nM

O=C1CCC(c2ccc(C3=CCCC3)c(F)c2)=NN1 [Example 80, 6-[4-(cyclopent-1-en-1-yl)-3-fluorophenyl]-4,5-dihydropyridazin-3(2H)-one]
IC50 (human full length PDE3A): 220 nM
IC50 [1]: 2.67 nM
IC50 (human full length PDE3B): 310 nM
IC50 (SK-MEL-3 (melanoma)): 4.13 nM

CCOc1ccccc1-c1ccc(C2=NNC(=O)CC2)cc1F [Example 52, 6-(2′-ethoxy-2-fluoro[1,1′-biphenyl]-4-yl)-4,5-dihydropyridazin-3(2H)-one]
IC50 (human full length PDE3A): 95 nM
IC50 [1]: 66.8 nM
IC50 (human full length PDE3B): 65 nM
IC50 (SK-MEL-3 (melanoma)): > 100 nM

Cc1cc(C2=NNC(=O)CC2)ccc1-c1cc(F)cc(F)c1 [Example 105, 6-(3′,5′-difluoro-2-methyl[1,1′-biphenyl]-4-yl)-4,5-dihydropyridazin-3(2H)-one]
IC50 (human full length PDE3A): 200 nM
IC50 [1]: 27.6 nM
IC50 (human full length PDE3B): 200 nM
IC50 (SK-MEL-3 (melanoma)): > 100 nM

O=C1CCC(c2ccc(-c3cc(F)ccc3F)c(F)c2)=NN1 [Example 42, 6-(2,2′,5′-trifluoro[1,1′-biphenyl]-4-yl)-4,5-dihydropyridazin-3(2H)-one]
IC50 (human full length PDE3A): 80 nM
IC50 [1]: 5.23 nM
IC50 (human full length PDE3B): 68 nM
IC50 (SK-MEL-3 (melanoma)): 8.4 nM
